Assay results published in PMC9331863 (Antibiotics, 2022).
Where two headings read alike, the source gives them in different places.

Tests used:
[1] = Population pharmacokinetic modelling of dalbavancin plasma concentrations (TDM) in patients; conditions: for Q, inter-compartmental clearance / V1, central volume of distribution / V2, peripheral volume of distribution: typical value (%RSE)
Procedure: The study was approved by the local Ethics Committee (registration number 897/2021/Oss/AOUBo). Signed informed consent was waived due to the retrospective and observational nature of the investigation according to hospital agreements.
The dose amount (1000 mg or 1500 mg) was arbitrarily decided by the infectious diseases consultant at each patient center. The decision to administer any additional doses was taken in relation to the clinical evaluation of disease progression after at least 4 weeks from the administration of the second dose and it was based on the patient’s physical examination and on the trend of inflammatory biomarkers.
Blood samples were collected at different time-points after the second dose and sent to our lab for analysis. […] The lower limit of quantification was 0.5 mg/L.
At a first stage, a basic model was developed, by comparing one-, two- and three-compartment models with linear elimination. All individual parameters were log-normally distributed. Exponential random effects were assumed to describe inter-individual variability. Correlations between random effects were tested in the variance–covariance matrix and implemented into the structural model accordingly. Residual variability was tested according to three different error models (constant, proportional and combined error model).
The following covariates were tested on the PK parameters of the base model: age, gender, weight, height, serum albumin, serum creatinine and CLCR. The parameter–covariate relationships were modeled as additive or proportional shifts from the reference category for binary covariates, whereas the effect of continuous covariates was modeled using a power function. A covariate was included in the model according to the results of the likelihood ratio test (LRT) and if a reduction in the BIC and a decrease in the interpatient variability of the fixed-effect parameters were obtained. Descriptions of the pharmacokinetic model building and covariate analysis are reported in the Supplementary Materials.

[2] = cited from earlier work
[3] = real-world use beyond approved indications, outpatient antimicrobial treatment; cited from earlier work
[4] = cited from earlier work; remark: listed apart in the source
Text: Data were retrieved from registrative phase II/III clinical trials.

[5] = median (min–max) of population, 69 patients, two-compartment final model
[6] = three-compartment model, 703 patients with ABSSSI, ref Carrothers et al. [12]

CN[C@H]1C(=O)N[C@@H]2Cc3ccc(cc3)Oc3cc4cc(c3O[C@@H]3O[C@H](C(=O)O)[C@@H](O)[C@H](O)[C@H]3NC(=O)CCCCCCCCC(C)C)Oc3ccc(cc3Cl)[C@@H](O)[C@@H]3NC(=O)[C@H](NC(=O)[C@@H]4NC(=O)[C@@H](NC2=O)c2cc(cc(O)c2Cl)Oc2cc1ccc2O)c1ccc(O)c(c1)-c1c(O[C@H]2O[C@H](CO)[C@@H](O)[C@H](O)[C@@H]2O)cc(O)cc1[C@@H](C(=O)NCCCN(C)C)NC3=O [dalbavancin]
Q, inter-compartmental clearance ([1]; base model): 0.026 (17.9) L/h | V1, central volume of distribution ([1]; base model): 6.15 (4.79) L | V2, peripheral volume of distribution ([1]; base model): 10.51 (13.7) L | Q, inter-compartmental clearance ([1]; final model): 0.026 (18.1) L/h | V1, central volume of distribution ([1]; final model): 6.14 (5.26) L | V2, peripheral volume of distribution ([1]; final model): 9.52 (19.0) L | CL, total body clearance ([1]; human, in vivo): 0.029 (11.6) L/h | Vd ([1]; human, in vivo): 15.7 L | clearance ([1]; human, in vivo, CL, total body clearance): 0.683 mL/min | clearance ([1]; human, in vivo, population CL): 0.717 mL/min | population V1 [1, 5]: 6.21 (5.10–7.19) L | population V2 [1, 5]: 9.48 (7.60–11.89) L | penetration rate into bone tissue [2]: 13.1% | overall clinical success rate [3]: greater than 80% | elimination half-life [4]: > 180 h | population CL [4, 6]: 0.053 L/h | total V [4, 6]: 15.0 L | population CL ([4]; two-compartment model, 532 patients (ABSSSI, bloodstream infections), ref Buckwalter et al. [11]): 0.057 L/h | total V ([4]; two-compartment model, 532 patients, ref Buckwalter et al. [11]): 15.9 L
